Measured values: patent US9802997B2, “Peptides and combination of peptides for use in immunotherapy against various tumors” (immatics biotechnologies GmbH, priority 2015, dated 2017)

Legend:
HLA-A*02:01 = HLA-A*02:01 (Homo sapiens, UniProt P04439, D140Y/D185E/D98H/E176V/E277Q/G131W/G231S/I119V/I121R/I166T/I218V/L300P/L318F/N151K/N90K/P208A/P217A/Q86G/Q94H/R138H/R169H/T345S); test: MHC binding assay (UV-ligand exchange, beta2m ELISA); settings: binding to HLA-A*02:01, β2m ELISA
How it was run: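 Peptide–MHC complexes formed by UV-ligand exchange, cleaving a UV-sensitive peptide so the test peptide can bind. Exchange yield measured by ELISA: complexes captured on streptavidin-coated wells, diluted 100-fold, detected with HRP anti-β2m (1 h, 37 °C) and TMB at 450 nm, against refolded HLA-A*02:01/MLA-001 standards (15-500 ng/ml).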

[1] = system: CD8+ T cells of healthy HLA-A*02 donors; test: In vitro immunogenicity: in vitro T-cell priming with aAPCs loaded with peptide/MHC complexes and anti-CD28 antibody, pMHC multimer readout; format: cell-based, human; settings: for Wells positive [%]: HLA-A*02 restricted peptides
From the text: In order to obtain information regarding the immunogenicity of the TUMAPs of the present invention, the inventors performed investigations using an in vitro T-cell priming assay based on repeated stimulations of CD8+ T cells with artificial antigen presenting cells (aAPCs) loaded with peptide/MHC complexes and anti-CD28 antibody.
In order to perform in vitro stimulations by artificial antigen presenting cells loaded with peptide-MHC complex (pMHC) and anti-CD28 antibody, the inventors first isolated CD8+ T cells from fresh HLA-A*02 leukapheresis products via positive selection using CD8 microbeads (Miltenyi Biotec, Bergisch-Gladbach, Germany) of healthy donors obtained from the University clinics Mannheim, Germany, after informed consent. PBMCs and isolated CD8+ lymphocytes were incubated in T-cell medium (TCM) until use consisting of RPMI-Glutamax (Invitrogen, Karlsruhe, Germany) supplemented with 10% heat inactivated human AB serum (PAN-Biotech, Aidenbach, Germany), 100 U/ml Penicillin/100 μg/ml Streptomycin (Cambrex, Cologne, Germany), 1 mM sodium pyruvate (CC Pro, Oberdorla, Germany), 20 μg/ml Gentamycin (Cambrex). 2.5 ng/ml IL-7 (PromoCell, Heidelberg, Germany) and 10 U/ml IL-2 (Novartis Pharma, Nürnberg, Germany) were also added to the TCM at this step. Generation of pMHC/anti-CD28 coated beads, T-cell stimulations and readout was performed in a highly defined in vitro system using four different pMHC molecules per stimulation condition and 8 different pMHC molecules per readout condition.
The purified co-stimulatory mouse IgG2a anti human CD28 Ab 9.3 (Jung et al., 1987) was chemically biotinylated using Sulfo-N-hydroxysuccinimidobiotin as recommended by the manufacturer (Perbio, Bonn, Germany). Beads used were 5.6 μm diameter streptavidin coated polystyrene particles (Bangs Laboratories, Illinois, USA).
pMHC used for positive and negative control stimulations were A*0201/MLA-001 (peptide […] (SEQ ID NO. 289) from modified Melan-A/MART-1) and A*0201/DDX5-001 ([…] from DDX5, SEQ ID NO. 290), respectively.
800.000 beads/200 μl were coated in 96-well plates in the presence of 4×12.5 ng different biotin-pMHC, washed and 600 ng biotin anti-CD28 were added subsequently in a volume of 200 μl. Stimulations were initiated in 96-well plates by co-incubating 1×10^6 CD8+ T cells with 2×10^5 washed coated beads in 200 μl TCM supplemented with 5 ng/ml IL-12 (PromoCell) for 3 days at 37° C. Half of the medium was then exchanged by fresh TCM supplemented with 80 U/ml IL-2 and incubating was continued for 4 days at 37° C. This stimulation cycle was performed for a total of three times. For the pMHC multimer readout using 8 different pMHC molecules per condition, a two-dimensional combinatorial coding approach was used as previously described (Andersen et al., 2012) with minor modifications encompassing coupling to 5 different fluorochromes. Finally, multimeric analyses were performed by staining the cells with Live/dead near IR dye (Invitrogen, Karlsruhe, Germany), CD8-FITC antibody clone SK1 (BD, Heidelberg, Germany) and fluorescent pMHC multimers. For analysis, a BD LSRII SORP cytometer equipped with appropriate lasers and filters was used. Peptide specific cells were calculated as percentage of total CD8+ cells. Evaluation of multimeric analysis was done using the FlowJo software (Tree Star, Oregon, USA). In vitro priming of specific multimer+CD8+ lymphocytes was detected by comparing to negative control stimulations.

[2] = percentage of positive wells among evaluable

| Substance | Peptide exchange (MHC class I binding score, peptide exchange yield) (HLA-A*02:01) | Wells positive [%] [1, 2] | in vitro immunogenicity: wells ([1]; percentage of positive wells among evaluable, HLA-A*02 healthy donors, three stimulation cycles) | in vitro immunogenicity: donors ([1]; percentage of positive donors among evaluable, HLA-A*02 healthy donors, three stimulation cycles) |
| --- | --- | --- | --- | --- |
| 4 (VLFGELPAL; listed as Homo sapiens) [compound 4] | +++ (≧50 = +++) | + (<20% = +) | – | – |
| 9 (SLITGQDLLSV; listed as Homo sapiens) [compound 9] | +++ (≧50 = +++) | + (<20% = +) | – | – |
| 14 (YTFSGDVQL; listed as Homo sapiens) [compound 14] | +++ (≧50 = +++) | + (<20% = +) | – | – |
| 17 (GLLPSAESIKL; listed as Homo sapiens) [compound 17] | ++++ (≧75% = ++++) | + (<20% = +) | – | – |
| 27 (GLLGKVTSV; listed as Homo sapiens) [compound 27] | +++ (≧50 = +++) | + (<20% = +) | – | – |
| 29 (KMISAIPTL; listed as Homo sapiens) [compound 29] | ++ (≧20% = ++) | + (<20% = +) | – | – |
| 34 (TLNTLDINL; listed as Homo sapiens) [compound 34] | +++ (≧50 = +++) | ++++ (>=70% = ++++) | – | – |
| 35 (VIIKGLEEI; listed as Homo sapiens) [compound 35] | ++ (≧20% = ++) | + (<20% = +) | – | – |
| 39 (YLEDGFAYV; listed as Homo sapiens) [compound 39] | +++ (≧50 = +++) | ++++ (>=70% = ++++) | – | – |
| 50 (ILLSVLHQL; listed as Homo sapiens) [compound 50] | +++ (≧50 = +++) | + (<20% = +) | – | – |
| 66 (AMFPDTIPRV; listed as Homo sapiens) [compound 66] | ++ (≧20% = ++) | + (<20% = +) | – | – |
| 77 (ALYGNVQQV; listed as Homo sapiens) [compound 77] | +++ (≧50 = +++) | + (<20% = +) | – | – |
| 89 (SLAETIFIV; listed as Homo sapiens) [compound 89] | +++ (≧50 = +++) | + (<20% = +) | – | – |
| 97 (KLFEKSTGL; listed as Homo sapiens) [compound 97] | +++ (≧50 = +++) | + (<20% = +) | – | – |
| 101 (SLLEVNEASSV; listed as Homo sapiens) [compound 101] | +++ (≧50 = +++) | + (<20% = +) | – | – |
| 102 (GLYPVTLVGV; listed as Homo sapiens) [compound 102] | +++ (≧50 = +++) | + (<20% = +) | – | – |

| Substance | Peptide exchange (MHC class I binding score, peptide exchange yield) (HLA-A*02:01) | Wells positive [%] [1, 2] | in vitro immunogenicity: wells ([1]; percentage of positive wells among evaluable, HLA-A*02 healthy donors, three stimulation cycles) | in vitro immunogenicity: donors ([1]; percentage of positive donors among evaluable, HLA-A*02 healthy donors, three stimulation cycles) |
| --- | --- | --- | --- | --- |
| 121 (ALYVQAPTV; listed as Homo sapiens) [compound 121] | ++ (≧20% = ++) | + (<20% = +) | – | – |
| 157 (ILQDGQFLV; listed as Homo sapiens) [compound 157] | ++ (≧20% = ++) | + (<20% = +) | – | – |
| 233 (SLFESLEYL; listed as Homo sapiens) [compound 233] | +++ (≧50 = +++) | + (<20% = +) | – | – |
| 236 (KMSELQTYV; listed as Homo sapiens) [compound 236] | +++ (≧50 = +++) | + (<20% = +) | – | – |
| 242 (KLQEEIPVL; listed as Homo sapiens) [compound 242] | +++ (≧50 = +++) | + (<20% = +) | – | – |
| 246 (ALAGIVTNV; listed as Homo sapiens) [compound 246] | +++ (≧50 = +++) | + (<20% = +) | – | – |
| 254 (ALGDKFLLRV; listed as Homo sapiens) [compound 254] | ++ (≧20% = ++) | + (<20% = +) | – | – |
| 255 (FLMKNSDLYGA; listed as Homo sapiens) [compound 255] | +++ (≧50 = +++) | + (<20% = +) | – | – |
| 257 (KLIDHQGLYL; listed as Homo sapiens) [compound 257] | +++ (≧50 = +++) | + (<20% = +) | – | – |
| 260 (ALNESLVEC; listed as Homo sapiens) [compound 260] | +++ (≧50 = +++) | + (<20% = +) | – | – |
| 263 (SIIEYLPTL; listed as Homo sapiens) [compound 263] | +++ (≧50 = +++) | + (<20% = +) | – | – |
| 264 (TLHDQVHLL; listed as Homo sapiens) [compound 264] | ++ (≧20% = ++) | + (<20% = +) | – | – |
| 267 (YLLDMPLWYL; listed as Homo sapiens) [compound 267] | +++ (≧50 = +++) | + (<20% = +) | – | – |
| 287 (KIQEILTQV; listed as Homo sapiens) [compound 287] | – | – | + (<20% = +) | – |
| 288 (SLYKGLLSV; listed as Homo sapiens) [compound 288] | – | – | – | ++++ (>=70% = ++++) |
